Entries after “also recorded” stand apart in the source; their conditions may differ. Where no end group is shown, it is not given here.
Assays:
[1] = target: T1, Aß25-35 (Homo sapiens, UniProt P05067); assay: Inhibition of Aß25-35 aggregation, thioflavin T (ThT) fluorescence; assay type: biochemical; details: 0.1 mM peptide YS, 0.1 mM Aß25-35, 37° C., incubation 4 hours, n=3
Procedure: The peptides YS-11, YS-15, and YS-16 were used as the peptides YS of the examples. Each of the peptides was dissolved in MilliQ water to prepare three types of 1-mg/mL YS solutions.
An Aß-derived fragment peptide was used for aggregation of Aß. Aß25-35, which has high aggregability, was selected as the fragment peptide. The Aß25-35 is a peptide (SEQ ID NO: 7: GSNKGAIIGLM) constituted by 11 amino acid residues consisting of the twenty-fifth to thirty-fifth amino acid residues in the full length sequence of human-derived Aß (SEQ ID NO: 6). The Aß25-35 was dissolved in MilliQ water to prepare a 1-mmol/L Aß25-35 solution.
The fluorescent dye thioflavin T (ThT) binds to aggregates and emits strong fluorescence upon binding, and thus the increase or inhibition of aggregation can be determined by measuring the fluorescence intensity. Thus, the inhibition of aggregation of the Aß25-35 by each peptide YS was checked using ThT.
Specifically, a reaction solution with the following composition was prepared and dispensed into wells such that the amount of the reaction solution per well was 200 μL. After the reaction solution was incubated at 37° C. for a predetermined period of time (0 or 4 hours), 10 μL of 2-mmol/L ThT (reagent name “Thioflavine T”, manufactured by FUJIFILM Wako Pure Chemical Corporation) was added to each well, and the fluorescence intensity was measured using a measurement device (product name “Cytation5”, manufactured by BioTek) (n=3). The measurement wavelengths were set such that the excitation wavelength (ex) was 444 nm and the fluorescence wavelength (em) was 480 nm. As a control, a reaction solution to which water had been added instead of the peptide YS was also measured in the same way.

[2] = target: T1, Aß25-35; assay: IC50 of YS peptide against Aß25-35 aggregation (ThT fluorescence); assay type: biochemical; details: 37° C., ThT added 2 hours after start of incubation, blank corrected, n=3
Procedure: Reaction solutions with different compositions, namely those with the following compositions (A, B, C, and D), were prepared and dispensed into wells such that the amount of the reaction solution per well was 200 μL. The concentration (X mmol/L) of the peptide YS (YS-11 or YS-16) in the YS solution to be added to the reaction solutions was set to 0.01, 0.05, 0.1, 0.5, and 1 mmol/L. The reaction solutions were incubated at 37° C., and 10 μL of 2-mmol/L ThT (reagent name “Thioflavine T”, manufactured by FUJIFILM Wako Pure Chemical Corporation) was added to each well 2 hours after the start of the incubation. Then, the fluorescence intensity was measured using the measurement device (n=3). The measurement wavelengths were set such that the excitation wavelength (ex) was 444 nm and the fluorescence wavelength (em) was 480 nm. [table] […] In FIG. 2, the vertical axes indicate the fluorescence intensity (unit: FI), and the horizontal axes indicate the concentration of the peptide YS (unit: μmol/L).

[3] = target: T1, Aß25-35; assay: Aggregation inhibition checked by scanning electron microscope; assay type: biochemical; details: 0.1 mM peptide, 0.1 mM Aß25-35, 37° C., 4 hours, versus no peptide YS
Procedure: A reaction solution with the following composition was prepared in a 1.5-mL tube (manufactured by Eppendorf). After incubating at 37° C. for 4 hours, the reaction solution was centrifuged (12,000 rpm, 10 minutes), and a precipitate was collected. The collected precipitate was washed as follows: 200 μL of MilliQ water was added to the precipitate and the resultant mixture was centrifuged again (12,000 rpm, 10 minutes). This washing treatment was performed three times. Then, 100 μL of a 1% phosphotungstic acid solution was added to the collected precipitate. After the resultant mixture was left to stand for 5 minutes at room temperature, the precipitate was collected through centrifugation (12,000 rpm, 10 minutes), was washed by adding 200 μL of MilliQ water thereto, and was collected through centrifugation (12,000 rpm, 10 minutes). 100 μL of MilliQ water was added to the precipitate, and a suspension was formed using a Vortex mixer. The suspension was added to a glass slide and dried, followed by observation under a scanning electron microscope. [table]

[4] = target: T2, Aß25-35 aggregates (Homo sapiens, UniProt P05067); assay: Peptide YS concentration versus ability to dissociate Aß25-35 aggregates (ThT fluorescence); assay type: biochemical; details: 37° C.; for ability to dissociate Aß25-35 aggregates: 5 days after aggregate formation
Procedure: First, a reaction solution with the following composition was prepared, was dispensed into wells such that the amount of the reaction solution per well was 200 μL, and was incubated at 37° C. for 18 hours to form aggregates of the Aß25-35 in the reaction solution. 100 μL of an X-mmol/L peptide YS solution (YS-11 or YS-16) was further added to the reaction solution, and the resultant mixture was incubated at 37° C. for 5 days. The concentration (X mmol/L) of the peptide YS in the peptide YS solutions was set to […]. After the incubation, 10 μL of 2-mmol/L ThT was added to each well, and the fluorescence intensity was measured using the measurement device (n=3). The measurement wavelengths were set such that the excitation wavelength (ex) was 444 nm and the fluorescence wavelength (em) was 480 nm. As a control, a reaction solution (Aß25-35) to which water had been added instead of the peptide YS was also measured in the same way. [table]

[5] = target: T2, Aß25-35 aggregates; assay: Dissociation of Aß25-35 aggregates checked by scanning electron microscope; assay type: biochemical; details: pre-formed aggregates; 100 μL of 0.05-mmol/L YS-11 or 1-mmol/L YS-16 solution added, 37° C., 5 days; versus no peptide
Procedure: A reaction solution with the following composition was prepared in a 1.5-mL tube (manufactured by Eppendorf) and incubated at 37° C. for 18 hours to form aggregates of the Aß25-35. Then, 100 μL of a peptide YS solution at a predetermined concentration was added to the reaction solution, and the resultant mixture was further incubated at 37° C. for 5 days. A 0.05-mmol/L YS-11 solution, a 1-mmol/L YS-16 solution, and a 1-mmol/L YS-6 solution were used as the peptide YS solution, and MilliQ water was used instead of the peptide YS solution as a control. After the incubation, centrifugation (12,000 rpm, 10 minutes) was performed to collect a precipitate. The precipitate was treated in the same manner as in Example 1(3) above, and was then observed under a scanning electron microscope. [table]

[6] = test system: ICR mice to which Aß25-35 had been administered; assay: Y-maze short-term memory test in mice given Aß25-35; assay type: in vivo
Procedure: The aggregation inhibiting peptide was further administered to mice to which the Aß25-35 had been administered, and then the effects of the aggregation inhibiting peptide was checked.
The Aß25-35 was dissolved in a saline solution to prepare a 3-mmol/L Aß25-35 solution. The Aß25-35 and the YS-11 were dissolved in a saline solution to prepare a mixed solution containing the Aß25-35 at a concentration of 3 mmol/L and the YS-11 at a concentration of 3 mmol/L. The YS-11 was dissolved in a saline solution to prepare a 10-mg/mL YS-11 solution. A saline solution (Saline) was used as a control.
ICR mice (6-week old) were prepared and divided into an Aß25-35 administration group (n=15), a control (Saline) administration group (n=15), a mixed solution administration group (n=6), and a peptide YS administration group (n=7).
The administration schedule was as follows: ventricular administration was performed on Day 1, and nasal administration was performed on Day 14, Day 17, Day 20, and Day 23. A microsyringe was used for the ventricular administration, and a Pipetman was used for the nasal administration. Specifically, the administration was performed on each administration group as follows. […]
Then, on Day 14 and Day 28, the short-term memory was evaluated using a Y-maze. […]

[7] = target: T2, Aß25-35 aggregates; assay: Ability to dissociate pre-formed Aß25-35 aggregates (ThT fluorescence); assay type: biochemical; details: aggregates formed 18 hours at 37° C., then 100 μL of 1-mmol/L peptide added, 5 days
Procedure: First, a reaction solution with the following composition was prepared and incubated at 37° C. for 18 hours to form aggregates of the Aß25-35 in the reaction solution. 100 μL of a 1-mmol/L peptide YS (YS-5 or YS-16) was further added to the reaction solution, and the resultant mixture was incubated at 37° C. for 5 days. After the incubation, the reaction solution was dispensed into wells such that the amount of the reaction solution per well was 200 μL. Furthermore, 10 μL of 2-mmol/L ThT was added to each well, and the fluorescence intensity was measured using the measurement device (n=3). The measurement wavelengths were set such that the excitation wavelength (ex) was 444 nm and the fluorescence wavelength (em) was 480 nm. As a control, a reaction solution to which water had been added instead of the peptide YS was also measured in the same way. [table]

| Sequence | fluorescence intensity compared with the control (Aß25-35 without peptide YS) [1] | IC50 [2] [nM] | fibrous material / formation of aggregates under scanning electron microscope [3] | ability to dissociate Aß25-35 aggregates ([4]; final concentration range of 0.005 to 0.1 mmol/L) | amount of fibrous aggregates under scanning electron microscope [5] | alternation rate in Y-maze ([6]; Day 14, ventricular coadministration on Day 1 of 9 nmol Aß25-35 and 9 nmol YS-11 (mixed solution), n=6) | alternation rate in Y-maze ([6]; Day 28, Aß25-35 ventricular on Day 1, then YS-11 nasal 74 nmol on Day 14, 17, 20, 23, n=7) | control aggregates dissociated [7] [%] | fluorescence intensity relative to the control (Aß25-35) [7] [%] | aggregates dissociated (control Aß25-35 aggregates taken as 100%) ([4]; final concentration of 0.1 mmol/L, 5 days) [%] | ability to dissociate Aß25-35 aggregates ([4]; final concentration range of 0.01 to 0.1 mmol/L) |
| --- | --- | --- | --- | --- | --- | --- | --- | --- | --- | --- | --- |
| RETLVYLTHLD [YS-11, RETLVYLTHLD] | significantly lower; also recorded: considerably lower | 3600 | decreased very significantly | excellent dissociating ability | a further decrease in the amount of fibrous aggregates | as high as that of the control group | as high as that of the control group |  |  |  |  |
| RETLVYLTHLDYDDTE [YS-16, RETLVYLTHLDYDDTE] | significantly lower; also recorded: considerably lower | 600 | substantially no fibrous material was observed |  | a decrease in the amount of fibrous aggregates |  |  | 50 | 50 | 48 | excellent dissociating ability in a concentration-dependent manner |
| YKNMRETLVYLTHLD (aggregation inhibitor peptide) [YS-15] | significantly lower |  |  |  |  |  |  |  |  |  |  |

Reference: patent US20240238365A1, “AMYLOID-Beta AGGREGATION INHIBITOR, PHARMACEUTICAL COMPOSITION FOR AMYLOID-Beta AGGREGATION DISEASES, AND USE APPLICATION OF SAME” (O-FORCE CO., LTD., priority 2021, published 2024)
